{"source": "patent US10681909B2", "about": "“Herbicidal triazoles” (FMC Corporation, priority 2014, dated 2020)", "key": {"kochia": {"test_system": "kochia", "experiment": "Test C postemergence", "format": "in vivo, Kochia scoparia", "method_in_brief": "(§1)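 Surfactant-containing, non-phytotoxic solvent formulations of each compound were applied either preemergence to seeds in a loam soil–sand blend or postemergence to plants 2 to 18 cm tall (1- to 4-leaf stage). Postemergence plants were grown in peat moss–vermiculite medium.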"}, "crabgrass, large": {"test_system": "crabgrass, large", "experiment": "Test C postemergence", "format": "in vivo, Digitaria sanguinalis", "method_in_brief": "as §1"}, "barnyardgrass [1]": {"test_system": "barnyardgrass", "experiment": "Test A preemergence", "format": "in vivo, Echinochloa crus-galli", "conditions": "Echinochloa crus-galli, pre-emergence, 240 h, 0 to 100 scale (0 no effect, 100 complete control), read-out: Plant response rating, Barnyardgrass", "method_in_brief": "(§2)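 Pre- and postemergence spray tests in a loam soil–sand mixture: seeded soil received a directed spray, while established seedlings 2–10 cm high at the one- to two-leaf stage were treated over the top. Compounds were carried in non-phytotoxic solvent with surfactant.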"}, "wheat": {"test_system": "wheat", "experiment": "Test A postemergence", "format": "in vivo, Triticum aestivum", "conditions": "Triticum aestivum, post-emergence, 240 h, 0 to 100 scale (0 no effect, 100 complete control), approx. 10 d, read-out: Plant response rating, Wheat", "method_in_brief": "as §2"}, "morningglory": {"test_system": "morningglory", "experiment": "Test C postemergence", "format": "in vivo, Ipomoea coccinea", "method_in_brief": "as §1"}, "barnyardgrass [2]": {"test_system": "barnyardgrass", "experiment": "Test C postemergence", "format": "in vivo, Echinochloa crus-galli", "method_in_brief": "as §1"}, "velvetleaf": {"test_system": "velvetleaf", "experiment": "Test C postemergence", "format": "in vivo, Abutilon theophrasti", "method_in_brief": "as §1"}, "foxtail, giant": {"test_system": "foxtail, giant", "experiment": "Test A preemergence", "format": "in vivo, Setaria faberii", "conditions": "Setaria faberi, pre-emergence, 240 h, 0 to 100 scale (0 no effect, 100 complete control), read-out: Plant response rating, Foxtail, Giant", "method_in_brief": "as §2"}, "soybean": {"test_system": "soybean", "experiment": "Test C postemergence", "format": "in vivo, Glycine max", "method_in_brief": "as §1"}, "waterhemp": {"test_system": "waterhemp", "experiment": "Test C postemergence", "format": "in vivo, Amaranthus rudis", "method_in_brief": "as §1"}, "blackgrass": {"test_system": "blackgrass", "experiment": "Test C postemergence", "format": "in vivo, Alopecurus myosuroides", "method_in_brief": "as §1"}, "chamomile": {"test_system": "chamomile", "experiment": "Test D postemergence", "format": "in vivo, Matricaria inodora", "conditions": "scale 0 to 100", "source_text": "Seeds of plant species selected from bluegrass (annual bluegrass, Poa annua), blackgrass (Alopecurus myosuroides), canarygrass (Phalaris minor), chickweed (common chickweed, Stellaria media), galium (catchweed bedstraw, Galium aparine), bromegrass, down (downy bromegrass, Bromus tectorum), Russian thistle (Salsola kali), field poppy (Papaver rhoeas), field violet (Viola arvensis), foxtail, green (green foxtail, Setaria viridis), deadnettle (henbit deadnettle, Lamium amplexicaule), ryegrass, Ital. (Italian ryegrass, Lolium multiflorum), kochia (Kochia scoparia), lambsquarters (Chenopodium album), oilseed rape (Brassica napus), pigweed (Amaranthus retroflexus), chamomile (scentless chamomile, Matricaria inodora), speedwell (bird's-eye speedwell, Veronica persica), barley, spring (spring barley, Hordeum vulgare), wheat, spring (spring wheat, Triticum aestivum), buckwheat, wild (wild buckwheat, Polygonum convolvulus), wild mustard (Sinapis arvensis), oat, wild (wild oat, Avena fatua), radish, wild (wild radish, Raphanus raphanistrum), […]), barley, winter (winter barley, Hordeum vulgare), and wheat, winter (winter wheat, Triticum aestivum) were planted into a silt loam soil and treated preemergence with test chemicals formulated in a non-phytotoxic solvent mixture which included a surfactant. At the same time, these species were planted in pots containing Sunshine Redi-Earth® planting medium comprising spaghnum peat moss, vermiculite, starter nutrients and dolomitic limestone and treated with postemergence applications of the test chemicals formulated in the same manner. Plants ranged in height from 2 to 18 cm (1- to 4-leaf stage). Treated plants and controls were maintained in a controlled growth environment for 14 to 21 d after which time all species were compared to controls and visually evaluated. […] A dash (-) response means no test result."}, "pigweed": {"test_system": "pigweed", "experiment": "Test A preemergence", "format": "in vivo, Amaranthus retroflexus", "conditions": "Amaranthus retroflexus, pre-emergence, 240 h, 0 to 100 scale (0 no effect, 100 complete control), read-out: Plant response rating, Pigweed", "method_in_brief": "as §2"}}}
{"smiles": "CCOc1nc(-c2ccc(C(F)(F)F)cc2)nn1Cc1ccnc(C(F)(F)F)c1", "note": "[Compound 35, 4-[[5-ethoxy-3-[4-(trifluoromethyl)phenyl]-1H-1,2,4-triazole-1-yl]methyl]-2-(trifluoromethyl)pyridine]", "values": [{"measurement": "Plant response rating (scale of 0 to 100 where 0 is no effect and 100 is complete control)", "setting": "kochia; 31 g ai/ha", "value": 90}, {"measurement": "Plant response rating (scale of 0 to 100 where 0 is no effect and 100 is complete control)", "setting": "kochia; 62 g ai/ha", "value": 90}, {"measurement": "Plant response rating (scale of 0 to 100 where 0 is no effect and 100 is complete control)", "setting": "kochia; 125 g ai/ha", "value": 90}, {"measurement": "Plant response rating (scale of 0 to 100 where 0 is no effect and 100 is complete control)", "setting": "kochia; 250 g ai/ha", "value": 90}, {"measurement": "Plant response rating (scale of 0 to 100 where 0 is no effect and 100 is complete control)", "setting": "crabgrass, large; 31 g ai/ha", "value": 35}, {"measurement": "Plant response rating (scale of 0 to 100 where 0 is no effect and 100 is complete control)", "setting": "crabgrass, large; 62 g ai/ha", "value": 60}, {"measurement": "Plant response rating (scale of 0 to 100 where 0 is no effect and 100 is complete control)", "setting": "crabgrass, large; 125 g ai/ha", "value": 70}, {"measurement": "Plant response rating (scale of 0 to 100 where 0 is no effect and 100 is complete control)", "setting": "crabgrass, large; 250 g ai/ha", "value": 80}, {"measurement": "pest or weed control at 31 g/ha", "setting": "barnyardgrass [1]; 31 g ai/ha", "value": 80, "unit": "%"}, {"measurement": "pest or weed control at 125 g/ha", "setting": "barnyardgrass [1]; 125 g ai/ha", "value": 100, "unit": "%"}, {"measurement": "plant injury at 31 g/ha", "setting": "wheat; 31 g ai/ha", "value": 40, "unit": "%"}, {"measurement": "plant injury at 125 g/ha", "setting": "wheat; 125 g ai/ha", "value": 70, "unit": "%"}, {"measurement": "Plant response rating (scale of 0 to 100 where 0 is no effect and 100 is complete control)", "setting": "morningglory; 31 g ai/ha", "value": 70}, {"measurement": "Plant response rating (scale of 0 to 100 where 0 is no effect and 100 is complete control)", "setting": "morningglory; 62 g ai/ha", "value": 95}, {"measurement": "Plant response rating (scale of 0 to 100 where 0 is no effect and 100 is complete control)", "setting": "morningglory; 125 g ai/ha", "value": 85}, {"measurement": "Plant response rating (scale of 0 to 100 where 0 is no effect and 100 is complete control)", "setting": "morningglory; 250 g ai/ha", "value": 95}, {"measurement": "Plant response rating (scale of 0 to 100 where 0 is no effect and 100 is complete control)", "setting": "barnyardgrass [2]; 31 g ai/ha", "value": 30}, {"measurement": "Plant response rating (scale of 0 to 100 where 0 is no effect and 100 is complete control)", "setting": "barnyardgrass [2]; 62 g ai/ha", "value": 45}, {"measurement": "Plant response rating (scale of 0 to 100 where 0 is no effect and 100 is complete control)", "setting": "barnyardgrass [2]; 125 g ai/ha", "value": 60}, {"measurement": "Plant response rating (scale of 0 to 100 where 0 is no effect and 100 is complete control)", "setting": "barnyardgrass [2]; 250 g ai/ha", "value": 85}, {"measurement": "Plant response rating (scale of 0 to 100 where 0 is no effect and 100 is complete control)", "setting": "velvetleaf; 31 g ai/ha", "value": 65}, {"measurement": "Plant response rating (scale of 0 to 100 where 0 is no effect and 100 is complete control)", "setting": "velvetleaf; 62 g ai/ha", "value": 75}, {"measurement": "Plant response rating (scale of 0 to 100 where 0 is no effect and 100 is complete control)", "setting": "velvetleaf; 125 g ai/ha", "value": 80}, {"measurement": "Plant response rating (scale of 0 to 100 where 0 is no effect and 100 is complete control)", "setting": "velvetleaf; 250 g ai/ha", "value": 85}, {"measurement": "pest or weed control at 31 g/ha", "setting": "foxtail, giant; 31 g ai/ha", "value": 100, "unit": "%"}, {"measurement": "pest or weed control at 125 g/ha", "setting": "foxtail, giant; 125 g ai/ha", "value": 100, "unit": "%"}, {"measurement": "Plant response rating (scale of 0 to 100 where 0 is no effect and 100 is complete control)", "setting": "soybean; 31 g ai/ha", "value": 55}, {"measurement": "Plant response rating (scale of 0 to 100 where 0 is no effect and 100 is complete control)", "setting": "soybean; 62 g ai/ha", "value": 65}, {"measurement": "Plant response rating (scale of 0 to 100 where 0 is no effect and 100 is complete control)", "setting": "soybean; 125 g ai/ha", "value": 65}, {"measurement": "Plant response rating (scale of 0 to 100 where 0 is no effect and 100 is complete control)", "setting": "soybean; 250 g ai/ha", "value": 70}, {"measurement": "Plant response rating (scale of 0 to 100 where 0 is no effect and 100 is complete control)", "setting": "waterhemp; 31 g ai/ha", "value": 98}, {"measurement": "Plant response rating (scale of 0 to 100 where 0 is no effect and 100 is complete control)", "setting": "waterhemp; 62 g ai/ha", "value": 98}, {"measurement": "Plant response rating (scale of 0 to 100 where 0 is no effect and 100 is complete control)", "setting": "waterhemp; 125 g ai/ha", "value": 95}, {"measurement": "Plant response rating (scale of 0 to 100 where 0 is no effect and 100 is complete control)", "setting": "waterhemp; 250 g ai/ha", "value": 98}, {"measurement": "Plant response rating (scale of 0 to 100 where 0 is no effect and 100 is complete control)", "setting": "blackgrass; 31 g ai/ha", "value": 65}, {"measurement": "Plant response rating (scale of 0 to 100 where 0 is no effect and 100 is complete control)", "setting": "blackgrass; 62 g ai/ha", "value": 70}, {"measurement": "Plant response rating (scale of 0 to 100 where 0 is no effect and 100 is complete control)", "setting": "blackgrass; 125 g ai/ha", "value": 85}, {"measurement": "Plant response rating (scale of 0 to 100 where 0 is no effect and 100 is complete control)", "setting": "blackgrass; 250 g ai/ha", "value": 85}, {"measurement": "Plant response rating: Chamomile", "setting": "chamomile; 16 g ai/ha", "value": 70}, {"measurement": "Plant response rating: Chamomile", "setting": "chamomile; 31 g ai/ha", "value": 75}, {"measurement": "Plant response rating: Chamomile", "setting": "chamomile; 62 g ai/ha", "value": 95}, {"measurement": "Plant response rating: Chamomile", "setting": "chamomile; 125 g ai/ha", "value": 100}, {"measurement": "pest or weed control at 31 g/ha", "setting": "pigweed; 31 g ai/ha", "value": 100, "unit": "%"}, {"measurement": "pest or weed control at 125 g/ha", "setting": "pigweed; 125 g ai/ha", "value": 100, "unit": "%"}]}
